This is an account of results in patent US10398661B2, “Methods for classifying a cancer as susceptible to TMEPAI-directed therapies and treating such cancers” (THE BOARD OF REGENTS OF THE UNIVERSITY OF TEXAS SYSTEM, priority 2013, dated 2019).

A value given as a limit tells only on which side of the number the result lay.

In data set [1] the test system is TMEPAI. Put plainly: TMEPAI mRNA (QPCR) and protein expression in MDA-MB-231 cells with TGF-β. Format: cell-based, human. From the text: (§1) FIGS. 1A-B: Relative expression of TMEPAI mRNA and protein in normal and cancer cells. FIG. 1A. Effect of TGF-β on TMEPAI mRNA expression by QPCR in normal human mammary epithelial (HMEC) and MDA-MB-231 breast cancer cells, which is inhibited by TGF-β receptor I kinase inhibitor SB431542 (SB). FIG. 1B. Relative expression of TMEPAI protein in HMEC and MDA-MB-231 cells without or with TGF-β stimulation.
(§2) TMEPAI Expression in Normal Mammary Epithelial Cells Vs Breast Cancer Cells. […] The inventors tested the expression of TMEPAI in various breast cancer lines by immunoblotting. […] Moreover, TMEPAI is also expressed by aggressive HER2-positive breast cancer cells that either coexpress estrogen receptor (BT-474) or not (SK-BR-3) (FIG. 2).

The test system of data set [2] is TMEPAI. Put plainly: TMEPAI RNA and protein expression in normal human mammary epithelial cells (HMEC) with TGF-β. The conditions noted are these: in response to TGF-β. In kind it is cell-based.
Description: as §1, §2

Data set [3] relates to normal mammary epithelial cells MCF-10A. Briefly: Growth of normal mammary epithelial MCF-10A cells with celastrol. Format: cell-based. Conditions: 1 μM. The text has this:
FIGS. 10A-D: Celastrol is novel inhibitor of TMEPAI expression and cancer cell growth by enhancing growth suppressive TGF-β signaling. FIG. 10A. […] FIG. 10B. Celastrol had no effect on the growth of normal mammary epithelial cells MCF-10A. FIG. 10C. Celastrol inhibited non-Smad signaling (left panel) and enhanced Smad signaling (right panel) by inhibiting TMEPAI expression. FIG. 10D. Celastrol enhanced Smad signaling as measured by 12XCAGA-Luciferase reporter assay.
Terpinoid Derivative Celastrol Blocked TMEPAI Expression and Reversed TMEPAI Mediated Effects. The inventors identified tripterine (celastrol), a triterpinoid, having the ability to block TGF-β induced TMEPAI expression after screening several terpinoid derivatives with reactive α,β-unsaturated ketones in their structure. […] Only a mild decrease in the proliferation of normal MCF-10A cells was observed even at a 10-fold higher dose of celastrol (not shown). […] Equally, celastrol inhibited non-Smad signaling (FIG. 10C, left panel). The enhancement of Smad signaling is also confirmed by increased 12XCAGA-luciferase reporter activity (FIG. 10D).

Another data set deals with MDA-MB-231 tumors. Briefly: Subcutaneous MDA-MB-231 tumors in athymic mice treated with celastrol. Format: in vivo. Conditions: 2 mg/kg, 3 times a week for 4 weeks. Here is the method: (§3) FIG. 11A. athymic mice bearing subcutaneous MDA-MB-231 tumors that were treated for 3 times a week for 4 consecutive weeks with 2 mg/kg celastrol or vehicle alone. FIG. 11B. Tumor weights following celastrol treatment, P<0.001. […] FIG. 11C. […] Toxicity of celastrol administered was monitored by measuring total body weight.
(§4) Pharmacological Inhibition of TMEPAI Expression Reduces Tumor Growth In Vivo. […] Compared to vehicle-treatment, celastrol treatment led to a ˜6-fold reduction in tumor burden (FIG. 11B). […] Thus, these preclinical studies confirm that TMEPAI expressing breast cancers thrive by suppressing tumor suppressive TGF-β signaling and are therefore susceptible to pharmacological inhibition of TMEPAI expression by celastrol.

Data set [4] can be described thus: Total body weight of tumor-bearing mice treated with celastrol (toxicity). In kind it is in vivo. Conditions: 2 mg/kg. The protocol: as §3, §4
Data set [5] is described as follows: Body weights of xenograft-bearing nude mice treated with CLST-NP or CLST (toxicity). In kind it is in vivo. Conditions: doses administered: 0.2 mg/kg CLST-NP, 2 mg/Kg CLST. The protocol:
(FIG. 12A) Representative pictures of tumors excised from nude mice that harbored xenografts of human breast cancer cells (MDA-MB-231). (Veh-NP) 2 mg/kg drug-free liposomes, 0.2 mg/kg celastrol containing liposomes (CLST-NP) or 2 mg/Kg celastrol alone (CLST) were administered by intraperitoneal injection every alternate day for first week and every 2 day interval for following week for a total of two weeks period. (FIG. 12B) Tumor weights were shown *p<0.01 versus Vehicle control group. (FIG. 12C) Tumor volumes measured before sacrificing the animals. * p<0.01 versus Vehicle control group. (FIG. 12D) Similarities in body weights of animals treated with vehicle or drugs indicate non-toxicity of CLST-NP and CLST at the doses administered.
Similarities in body weights of animals treated with vehicle or drugs indicate non-toxicity of CLST-NP and CLST at the doses administered.

For data set [6] the following is noted: cited from earlier work.
[7] abbreviates: MDA-MB-231 cells, within 6 h of treatment.

In the case of TGF-β, in the data set on TMEPAI [1] (setting [7]), the “induction of TMEPAI mRNA” value is reported as above 40 fold and the “induction of TMEPAI proteins” value is recorded as around 9 fold. In addition, in the data set on TMEPAI [2], the “induction of TMEPAI RNA and proteins” value is on record as “poorly induced”.

For `CC1=C(O)C(=O)C=C2C1=CC=C1[C@@]2(C)CC[C@@]2(C)[C@@H]3C[C@](C)(C(=O)O)CC[C@]3(C)CC[C@]12C` [celastrol], the “growth of normal MCF-10A cells” value in data set [3] is recorded as “no effect”. For the same compound, in the data set with MDA-MB-231 tumors, the “reduction in tumor burden compared to vehicle-treatment (tumor weights)” value is recorded as around 6 fold. Further, the “luminescence signal in the tumors” value in the data set with MDA-MB-231 tumors (MDA-MB-231 cells expressing GFP-luciferase) is 500-2500 RLU. In data set [4], the “total body weights of mice versus vehicle” value is listed as “remained the same” and the “toxic effects at the dose given to mice” value is recorded as “no toxic effects”. Also, the “toxicity judged from body weights similar to vehicle” value in data set [5] is “non-toxicity”. For the same compound, the aqueous solubility entry in data set [6] is listed as “low”.

As to `NC(=O)c1ccc(-c2nc(-c3ccc4c(c3)OCO4)c(-c3ccccn3)[nH]2)cc1` [SB431542], the “effect of TGF-β on TMEPAI mRNA expression by QPCR in presence of inhibitor” value in the data set with TMEPAI [1] (HMEC and MDA-MB-231 cells) is “inhibited”.
